Read-outs that look alike come from different tables or passages of the source.
Columns and labels:
Assay type in all cases: in vivo
[1] = tested on: Beet Armyworm (Spodoptera exigua, LAPHEG); assay: Bioassay on Beet Armyworm (BAW), 128-well diet tray assay
In short: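 Second instar larvae were exposed to diet treated at 50 μg/cm^2 for five to seven days at 25° C.; mortality was averaged over eight wells.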

[2] = tested on: Cabbage Looper (Trichoplusia ni, TRIPNI); assay: Bioassay on Cabbage Looper (CL), 128-well diet tray assay; settings: Trichoplusia ni
In short: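 Second-instar larvae, one to five per well, were placed on artificial diet surface-treated with 50 μg/cm^2 test molecule applied in 90:10 acetone-water and dried, eight wells per molecule. Trays were covered, vented and held at 25° C., 14:10 light-dark for five to seven days; percent mortality per well was averaged.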

[3] = tested on: Yellow Fever Mosquito (Aedes aegypti, AEDSAE); assay: Bioassay on Yellow Fever Mosquito (YFM), 96-well plate larval assay; settings: for YFM (Biological Results, rating): Species YFM (Yellow Fever Mosquito); for YFM rating: Yellow Fever Mosquito, 96-well plate larval assay
In short: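 Aedes aegypti larvae (about 1 day old) in liver-powder water were added to plates dispensed from DMSO master plates (4000 ppm stock) diluted with 90:10 water/acetone; six replicate plates per master. Lidded plates were held at room temperature for 3 days, then each well was scored for mortality.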

[4] = Species BAW (Beet Armyworm), read-out: BAW (Biological Results, rating)
[5] = Species CL (Cabbage Looper), read-out: CL (Biological Results, rating)
[6] = Beet Armyworm, 128-well diet tray assay, read-out: BAW rating
[7] = Cabbage Looper, 128-well diet tray assay, read-out: CL rating

| Compound | pest or weed control at 50 µg/cm2 [1, 4] [%] | pest or weed control at 50 µg/cm2 [2, 5] [%] | YFM (Biological Results, rating) [3] | pest or weed control at 50 µg/cm2 [1, 6] [%] | pest or weed control at 50 µg/cm2 [2, 7] [%] | YFM rating [3] |
| --- | --- | --- | --- | --- | --- | --- |
| C=Cc1cc(Cl)cc([C@H]2[C@H](C(=O)Nc3ccc(Cl)c(C(=O)Nc4ccc(F)cc4)c3)C2(Cl)Cl)c1 (relative stereo) [F350, 2-Chloro-5-(trans-2,2-dichloro-3-(3-chloro-5-vinylphenyl)cyclopropane-1-carboxamido)-N-(4-fluorophenyl)benzamide] | 50 to 100 | 50 to 100 | A (80-100) | – | – | – |
| CNc1ccc(NC(=O)c2cc(NC(=O)[C@H]3[C@H](c4cc(Cl)cc(Cl)c4)C3(Cl)Cl)ccc2Cl)c(C)c1 (relative stereo) [F196, trans-2-Chloro-5-(2,2-dichloro-3-(3,5-dichlorophenyl)cyclopropane-1-carboxamido)-N-(2-methyl-4-(methylamino)phenyl)benzamide] | 50 to 100 | 50 to 100 | A (80-100) | – | – | – |
| O=C(Nc1nc2ccccc2o1)c1cc(NC(=O)C2C(c3cc(Cl)cc(Cl)c3)C2(Cl)Cl)ccc1Cl (stereo not drawn) [F447, N-(Benzo[d]oxazol-2-yl)-2-chloro-5-(trans)-2,2-dichloro-3-(3,5-dichlorophenyl)cyclopropane-1-carboxamido)benzamide] | – | – | – | 50 to 100 | 50 to 100 | A (80-100) |
| O=C(Nc1cc2cc[nH]c2cc1F)c1cc(NC(=O)[C@H]2[C@H](c3cc(Cl)cc(Cl)c3)C2(Cl)Cl)ccc1Cl (relative stereo) [F527, 2-Chloro-5-(trans)-(2,2-dichloro-3-(3,5-dichlorophenyl)cyclopropane-1-carboxamido)-N-(6-fluoro-1H-indol-5-yl)benzamide] | – | – | – | 50 to 100 | 50 to 100 | A (80-100) |
| O=C(Nc1ccc2[nH]ccc2c1)c1cc(NC(=O)C2C(c3cc(Cl)cc(Cl)c3)C2(Cl)Cl)ccc1Cl (stereo not drawn) [F435, 2-Chloro-5-(trans)-2,2-dichloro-3-(3,5-dichlorophenyl)cyclopropane-1-carboxamido)-N-(1H-indol-5-yl)benzamide] | – | – | – | 50 to 100 | 50 to 100 | A (80-100) |
| Cc1ccc(NC(=O)c2cc(NC(=O)[C@H]3[C@H](c4cc(Cl)cc(Cl)c4)C3(Cl)Cl)ccc2Cl)cc1N (relative stereo) [F205, trans-N-(3-Amino-4-methylphenyl)-2-chloro-5-(2,2-dichloro-3-(3,5-dichlorophenyl)cyclopropane-1-carboxamido)benzamide] | 50 to 100 | 50 to 100 | B (More than 0-Less than 80) | – | – | – |
| Nc1ccc(F)c(NC(=O)c2cc(NC(=O)[C@H]3[C@H](c4cc(Cl)cc(Cl)c4)C3(Cl)Cl)ccc2Cl)c1 [F427, N-(5-Amino-2-fluorophenyl)-2-chloro-5-((1R,3R)-2,2-dichloro-3-(3,5-dichlorophenyl)cyclopropane-1-carboxamido)benzamide] | – | – | – | 50 to 100 | 50 to 100 | A (80-100) |
| O=C(Nc1ccc(Cl)c(Cl)c1)c1cc(NC(=O)C2C(c3cc(Cl)cc(Cl)c3)C2(Cl)Cl)ccc1Cl (stereo not drawn) [PF117, 2-Chloro-5-(trans)-2,2-dichloro-3-(3,5-dichlorophenyl)cyclopropane-1-carboxamido)-N-(3,4-dichlorophenyl)benzamide] | – | – | – | 50 to 100 | 50 to 100 | A (80-100) |
| Cc1cc(NC(=O)c2cc(NC(=O)[C@H]3[C@H](c4cc(Cl)cc(Cl)c4)C3(Cl)Cl)ccc2Cl)ccc1F (relative stereo) [PF44, trans-2-Chloro-5-(2,2-dichloro-3-(3,5-dichlorophenyl)cyclopropane-1-carboxamido)-N-(4-fluoro-3-methylphenyl)benzamide] | – | – | – | 50 to 100 | 50 to 100 | A (80-100) |
| CCn1ccc2cc(NC(=O)c3cc(NC(=O)[C@H]4[C@H](c5cc(Cl)cc(Cl)c5)C4(Cl)Cl)ccc3Cl)ccc21 (relative stereo) [F488, 2-Chloro-5-(trans)-(2,2-dichloro-3-(3,5-dichlorophenyl)cyclopropane-1-carboxamido)-N-(1-ethyl-1H-indol-5-yl)benzamide] | – | – | – | 50 to 100 | 50 to 100 | A (80-100) |
| O=C(Nc1nc(-c2cccs2)cs1)c1cc(NC(=O)[C@H]2[C@H](c3cc(Cl)cc(Cl)c3)C2(Cl)Cl)ccc1Cl (relative stereo) [PF135, trans-2-Chloro-5-(2,2-dichloro-3-(3,5-dichlorophenyl)cyclopropane-1-carboxamido)-N-(4-(thiophen-2-yl)thiazol-2-yl)benzamide] | – | – | – | 50 to 100 | 50 to 100 | A (80-100) |
| Cc1cc(F)ccc1NC(=O)c1cc(NC(=O)[C@H]2[C@H](c3ccc(Cl)c(Cl)c3)C2(Cl)Cl)ccc1Cl (relative stereo) [PF46, trans-2-Chloro-5-(2,2-dichloro-3-(3,4-dichlorophenyl)cyclopropane-1-carboxamido)-N-(4-fluoro-2-methylphenyl)benzamide] | – | – | – | 50 to 100 | 50 to 100 | A (80-100) |
| C#CCN(C(=O)c1cc(NC(=O)[C@H]2[C@H](c3cc(Cl)cc(Cl)c3)C2(Cl)Cl)ccc1Cl)c1ccc(F)cc1 (relative stereo) [F413, trans-2-Chloro-5-(2,2-dichloro-3-(3,5-dichlorophenyl)cyclopropane-1-carboxamido)-N-(4-fluorophenyl)-N-(prop-2-yn-1-yl)benzamide] | – | – | – | 50 to 100 | 50 to 100 | A (80-100) |
| Nc1cc(F)ccc1NC(=O)c1cc(NC(=O)[C@H]2[C@H](c3ccc(Cl)c(Cl)c3)C2(Cl)Cl)ccc1Cl [F576, N-(2-Amino-4-fluorophenyl)-2-chloro-5-((1R,3R)-2,2-dichloro-3-(3,4-dichlorophenyl)cyclopropane-1-carboxamido)benzamide] | – | – | – | 50 to 100 | 50 to 100 | A (80-100) |
| O=C(Nc1ccc(F)cc1F)c1cc(NC(=O)[C@H]2[C@H](c3cc(F)cc(C(F)F)c3)C2(Cl)Cl)ccc1Cl (relative stereo) [F560, 2-Chloro-5-(trans-2,2-dichloro-3-(3-(difluoromethyl)-5-fluorophenyl)cyclopropane-1-carboxamido)-N-(2,4-difluorophenyl)benzamide] | – | – | – | 50 to 100 | 50 to 100 | A (80-100) |
| CC(C)(C)OC(=O)Nc1ccc(NC(=O)c2cc(NC(=O)[C@H]3[C@H](c4cc(Cl)cc(Cl)c4)C3(Cl)Cl)ccc2Cl)cc1 (relative stereo) [PF13, trans-tert-Butyl-(4-(2-chloro-5-(2,2-dichloro-3-(3,5-dichlorophenyl)cyclopropane-1-carboxamido)benzamido)phenyl)carbamate] | – | – | – | 50 to 100 | 50 to 100 | A (80-100) |
| O=C(Nc1ccc(F)cc1F)c1cc(NC(=O)[C@H]2[C@H](c3ccc(C(F)F)c(F)c3)C2(Cl)Cl)ccc1Cl (relative stereo) [F563, 2-Chloro-5-(trans-2,2-dichloro-3-(4-(difluoromethyl)-3-fluorophenyl)cyclopropane-1-carboxamido)-N-(2,4-difluorophenyl)benzamide] | – | – | – | 50 to 100 | 50 to 100 | A (80-100) |
| O=C(Nc1ccc(F)cc1F)c1cc(NC(=O)[C@H]2[C@H](c3ccc(Cl)c(Cl)c3)C2(Cl)Cl)ccc1Cl [F211, 2-Chloro-5-((1R,3R)-2,2-dichloro-3-(3,4-dichlorophenyl)cyclopropane-1-carboxamido)-N-(2,4-difluorophenyl)benzamide] | 50 to 100 | 50 to 100 | A (80-100) | – | – | – |
| C=C(F)c1ccc(NC(=O)c2cc(NC(=O)[C@H]3[C@H](c4cc(Cl)cc(Cl)c4)C3(Cl)Cl)ccc2Cl)nc1F (relative stereo) [F398, 2-chloro-5-(trans-2,2-dichloro-3-(3,5-dichlorophenyl)cyclopropane-1-carboxamido)-N-(6-fluoro-5-(1-fluorovinyl)pyridin-2-yl)benzamide] | – | – | – | 50 to 100 | 50 to 100 | A (80-100) |
| CN1C(=O)CCc2cc(NC(=O)c3cc(NC(=O)[C@H]4[C@H](c5cc(Cl)cc(Cl)c5)C4(Cl)Cl)ccc3Cl)ccc21 (relative stereo) [F490, 2-chloro-5-(trans)-(2,2-dichloro-3-(3,5-dichlorophenyl)cyclopropane-1-carboxamido)-N-(1-methyl-2-oxo-1,2,3,4-tetrahydroquinolin-6-yl)benzamide] | – | – | – | 50 to 100 | 50 to 100 | A (80-100) |
| Cc1cc(N)ccc1NC(=O)c1cc(NC(=O)[C@H]2[C@H](c3cc(Cl)cc(Cl)c3)C2(Cl)Cl)ccc1Cl [F283, N-(4-Amino-2-methylphenyl)-2-chloro-5-((1R,3R)-2,2-dichloro-3-(3,5-dichlorophenyl)cyclopropane-1-carboxamido)benzamide] | 50 to 100 | 50 to 100 | A (80-100) | – | – | – |

— patent publication US10219516B2, “Molecules having pesticidal utility, and intermediates, compositions, and processes, related thereto” (priority 2015, dated 2019)
